Reference: ChEMBL document CHEMBL4184110 (Bioorg Med Chem Lett, 2018)

How the values were obtained:
Vitamin D3 receptor = target: T1, Vitamin D3 receptor (Homo sapiens, UniProt P11473); experiment: Antagonist activity at VDR-LBD (unknown origin) assessed as inhibition of LG190178-induced recruitment of alexa fluor 647-labeled SRC2-3 after 30 mins by fluorescence polarization assay
T1 sequence (P11473 whole entry): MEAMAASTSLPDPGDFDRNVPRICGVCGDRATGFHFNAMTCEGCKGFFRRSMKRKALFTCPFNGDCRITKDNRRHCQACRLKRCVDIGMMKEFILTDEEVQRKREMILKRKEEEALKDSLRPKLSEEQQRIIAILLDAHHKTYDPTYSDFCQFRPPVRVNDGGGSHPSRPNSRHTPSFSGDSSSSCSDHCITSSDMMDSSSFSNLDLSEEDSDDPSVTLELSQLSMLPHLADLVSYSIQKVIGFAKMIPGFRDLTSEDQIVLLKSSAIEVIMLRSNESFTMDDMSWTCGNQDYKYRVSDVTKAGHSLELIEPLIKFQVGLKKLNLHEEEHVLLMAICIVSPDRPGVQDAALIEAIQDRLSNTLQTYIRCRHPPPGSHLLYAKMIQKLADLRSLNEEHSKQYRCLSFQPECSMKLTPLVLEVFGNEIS

[1] = target: T2, Thyroid hormone receptor alpha (Homo sapiens, UniProt P10827); experiment: Antagonist activity at CMV-fused TRalpha-LBD-GAL4-DBD (unknown origin) expressed in HEK293T cells assessed as inhibition of T3-induced receptor transactivation after 16 hrs by bright-Glo luciferase reporter gene assay; type: cell-based
T2 sequence (P10827 whole entry): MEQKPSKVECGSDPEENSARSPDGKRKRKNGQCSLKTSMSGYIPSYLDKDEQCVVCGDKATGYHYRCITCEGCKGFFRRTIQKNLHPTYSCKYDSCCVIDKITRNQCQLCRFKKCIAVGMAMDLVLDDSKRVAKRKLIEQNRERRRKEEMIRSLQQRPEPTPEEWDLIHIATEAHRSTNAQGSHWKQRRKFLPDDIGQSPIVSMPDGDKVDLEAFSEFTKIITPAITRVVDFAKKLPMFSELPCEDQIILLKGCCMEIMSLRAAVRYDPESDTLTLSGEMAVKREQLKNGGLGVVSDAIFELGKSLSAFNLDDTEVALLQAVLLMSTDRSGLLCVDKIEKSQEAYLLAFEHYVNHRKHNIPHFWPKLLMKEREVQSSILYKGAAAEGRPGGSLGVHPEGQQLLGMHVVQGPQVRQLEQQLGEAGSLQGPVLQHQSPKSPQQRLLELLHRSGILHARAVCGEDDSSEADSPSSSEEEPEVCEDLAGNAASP

HEK-293T = experiment: Cytotoxicity against HEK293T cells assessed as decrease in cell viability at 100 uM after 18 hrs by Cell Titer-Glo based luminescence assay relative to control; settings: human
[2] = target: T3, Peroxisome proliferator-activated receptor alpha (Homo sapiens, UniProt Q07869); experiment: Antagonist activity at CMV-fused PPARalpha-LBD-GAL4-DBD (unknown origin) expressed in HEK293T cells assessed as inhibition of GW7647-induced receptor transactivation after 16 hrs by bright-Glo luciferase reporter gene assay; type: cell-based
T3 sequence (Q07869 whole entry): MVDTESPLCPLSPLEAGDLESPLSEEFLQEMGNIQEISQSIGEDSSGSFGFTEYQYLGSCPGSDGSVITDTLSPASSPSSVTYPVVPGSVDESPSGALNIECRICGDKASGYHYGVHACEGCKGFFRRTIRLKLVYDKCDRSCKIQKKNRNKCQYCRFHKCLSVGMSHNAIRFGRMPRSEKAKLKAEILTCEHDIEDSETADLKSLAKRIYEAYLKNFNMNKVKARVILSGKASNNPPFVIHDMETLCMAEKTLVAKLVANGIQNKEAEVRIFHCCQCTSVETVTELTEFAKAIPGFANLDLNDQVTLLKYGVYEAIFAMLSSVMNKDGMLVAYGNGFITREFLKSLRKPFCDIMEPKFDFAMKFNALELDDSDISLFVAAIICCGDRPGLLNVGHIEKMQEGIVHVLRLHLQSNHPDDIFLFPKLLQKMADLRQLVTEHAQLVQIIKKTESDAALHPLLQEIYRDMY

[3] = target: T4, Peroxisome proliferator-activated receptor gamma (Homo sapiens, UniProt P37231); experiment: Antagonist activity at CMV-fused PPARgamma-LBD-GAL4-DBD (unknown origin) expressed in HEK293T cells assessed as inhibition of rosiglitazone-induced receptor transactivation after 16 hrs by bright-Glo luciferase reporter gene assay; type: cell-based
T4 sequence (P37231 whole entry): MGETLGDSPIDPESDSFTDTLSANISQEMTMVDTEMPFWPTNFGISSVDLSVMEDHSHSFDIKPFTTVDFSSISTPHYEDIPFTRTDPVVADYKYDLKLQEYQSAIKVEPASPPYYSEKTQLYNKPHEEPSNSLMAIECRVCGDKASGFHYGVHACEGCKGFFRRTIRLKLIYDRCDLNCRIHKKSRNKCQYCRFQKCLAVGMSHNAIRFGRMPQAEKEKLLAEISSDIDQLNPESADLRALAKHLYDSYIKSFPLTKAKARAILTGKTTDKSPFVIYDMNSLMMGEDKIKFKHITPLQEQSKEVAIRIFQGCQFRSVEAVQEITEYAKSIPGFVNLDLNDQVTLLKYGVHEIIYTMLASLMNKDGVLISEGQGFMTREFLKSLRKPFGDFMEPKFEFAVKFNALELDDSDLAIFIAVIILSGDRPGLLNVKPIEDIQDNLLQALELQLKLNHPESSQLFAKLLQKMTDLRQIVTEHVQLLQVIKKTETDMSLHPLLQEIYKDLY

[4] = target: T5, Peroxisome proliferator-activated receptor delta (Homo sapiens, UniProt Q03181); experiment: Antagonist activity at CMV-fused PPARdelta-LBD-GAL4-DBD (unknown origin) expressed in HEK293T cells assessed as inhibition of GW0742-induced receptor transactivation after 16 hrs by bright-Glo luciferase reporter gene assay; type: cell-based
T5 sequence (Q03181 whole entry): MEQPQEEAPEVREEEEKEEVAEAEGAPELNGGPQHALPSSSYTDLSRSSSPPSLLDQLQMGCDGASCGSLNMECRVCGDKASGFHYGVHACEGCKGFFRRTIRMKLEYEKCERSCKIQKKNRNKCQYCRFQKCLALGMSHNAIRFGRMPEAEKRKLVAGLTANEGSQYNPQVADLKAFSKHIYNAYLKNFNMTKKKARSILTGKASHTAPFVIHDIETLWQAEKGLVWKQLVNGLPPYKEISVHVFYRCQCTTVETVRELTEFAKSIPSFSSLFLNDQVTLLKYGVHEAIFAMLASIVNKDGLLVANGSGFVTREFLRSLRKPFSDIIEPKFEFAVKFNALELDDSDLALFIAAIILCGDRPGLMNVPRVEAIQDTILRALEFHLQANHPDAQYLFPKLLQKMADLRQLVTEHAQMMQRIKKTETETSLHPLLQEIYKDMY

[5] = target: T5, Peroxisome proliferator-activated receptor delta; experiment: Transactivation of CMV-fused PPARdelta-LBD-GAL4-DBD (unknown origin) expressed in HEK293T cells by luciferase reporter gene assay; type: cell-based
Estrogen receptor beta = Estrogen receptor beta (Homo sapiens, UniProt Q92731); experiment: Antagonist activity at CMV-fused ERbeta-LBD-GAL4-DBD (unknown origin) expressed in HEK293T cells assessed as inhibition of estradiol-induced receptor transactivation after 16 hrs by bright-Glo luciferase reporter gene assay; type: cell-based
Sequence of Estrogen receptor beta (Q92731 whole entry, the tested form may be a part): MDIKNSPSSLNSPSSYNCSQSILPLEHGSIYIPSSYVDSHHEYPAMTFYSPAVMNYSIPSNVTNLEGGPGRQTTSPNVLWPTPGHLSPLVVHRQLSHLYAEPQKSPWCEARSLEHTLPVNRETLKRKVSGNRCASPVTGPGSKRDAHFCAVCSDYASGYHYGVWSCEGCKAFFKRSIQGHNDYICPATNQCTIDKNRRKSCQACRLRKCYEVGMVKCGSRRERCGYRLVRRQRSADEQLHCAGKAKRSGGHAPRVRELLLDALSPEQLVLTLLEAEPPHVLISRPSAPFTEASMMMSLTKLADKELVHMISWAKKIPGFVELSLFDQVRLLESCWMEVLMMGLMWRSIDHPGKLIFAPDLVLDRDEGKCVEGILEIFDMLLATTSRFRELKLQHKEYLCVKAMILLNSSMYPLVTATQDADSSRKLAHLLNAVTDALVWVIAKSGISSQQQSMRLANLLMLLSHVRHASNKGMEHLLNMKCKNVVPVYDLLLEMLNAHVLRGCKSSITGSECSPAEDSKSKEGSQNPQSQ

| IC50 (Vitamin D3 receptor) | IC50 [1] [µM] | IC50 [2] [µM] | IC50 [3] [µM] | IC50 [4] [µM] | EC50 [5] | IC50 (Estrogen receptor beta) [µM] | SMILES | Activity (HEK-293T) [%] |
| --- | --- | --- | --- | --- | --- | --- | --- | --- |
| Not Active | 4.2 | 1.9 | 6.7 | 11.3 | Not Active | 7.4 | COC(=O)Cc1ccc(OCc2oc(-c3cccc(OC)c3)nc2C)cc1 | 63.4 |
| Not Active | 5.4 | 3.5 | 7.6 | 10.9 | Not Active | 5.9 | COC(=O)c1ccc(OCc2oc(-c3cccc(OC)c3)nc2C)cc1 | 35.6 |
| Not Active | 10.1 | 6.6 | 7.6 | 10.9 | Not Active | 23.6 | COC(=O)c1cccc(OCc2oc(-c3ccccc3OC)nc2C)c1 | 39.5 |
| Not Active | 8.4 | 8 | 6.3 | 6.6 | Not Active | 10 | COC(=O)Cc1ccc(OCc2oc(-c3ccccc3OC)nc2C)cc1 | 31.2 |
